For series [1], the system named is ventral prostate (VP). The procedure:
Serum-free organ culture of P0 Wistar rat VPs was performed as previously described (Sugimura et al., 1996). […] The two-dimensional area and perimeter of organs was measured from live captured images using NIH Image software.
P0 VPs were grown in vitro for five days in the presence (+) or absence (−) of T and with (+) or without (−) 100 μg ml^−1 anti-SHH antibody (5E1) (FIG. 4A), after which their two-dimensional area was measured (FIG. 4B).
Effect of exogenous SHH on VP growth and branching. The effects of adding recombinant SHH to VPs grown in vitro was examined (FIG. 10). VPs were grown for 3 days −/+T and −/+recombinant SHH protein (n=6).

Series [2] deals with ventral prostate (VP). The experiment in a line: Organ culture of P0 rat VPs: peripheral epithelial bud tips per unit perimeter. It counts as cell-based. To be noted: for mean bud tips per unit perimeter: six days; for mean bud tips per 1000 pixels perimeter: 3 days. The text has this: We chose to analyse the effect of Cy on the prostatic epithelia of VPs grown in vitro. Epithelial bud tips situated at the periphery of VPs (total of 60 VPs from each of four treatment groups and 16 independent experiments) were counted and expressed as a ratio to organ perimeter, to account for the changes in organ size after treatments (FIG. 5C). The addition of Cy to organs cultured −T caused a significant increase in the number of peripheral tips per unit perimeter (−T=60.16±/−0.97 mean bud tips per unit perimeter versus −T +Cy=74.47+/−1.07; Student's t-test, P=1.31 e^−17). […] It is possible that the number of tips induced by T or Cy were the maximum for the in vitro system, thus additive effects may not be apparent due to the limitations of the system. […] An increase in peripheral tip number was also observed in VPs cultured with anti-SHH antibody (5E1) in the absence of T (−T=62.13+/−0.82 versus −T+5E1=93.03+/−1.08), with a similar peripheral tip number being observed between VPs cultured +T and +T+5E1 (+T=74.32+/−0.69 versus +T+5E1=79.21+/−1.28).
The number of peripheral bud tips from the cultured VPs was counted and expressed as a ratio to perimeter (FIG. 10C).

The test system of series [3] is ventral prostate (VP). In words: Organ culture of P0 rat VPs: BrdU incorporation, mitotic/proliferative index. It counts as cell-based. To be noted: for % proliferative nuclei, mesenchyme: day 2; for % proliferative nuclei, epithelium: day 3. As for the experimental part:
(§1) Anti-CK14 antibody was diluted at 1:100, and anti-p63 antibody (Santa Cruz Biotechnologies Inc., USA) was diluted at 1:500. […] Mitotic indices were calculated by counting the number of pan-cytokeratin-positive epithelial cells that were also BrdU-positive.
[…] […] The percentage of proliferating cells was scored from three images of the peripheral tips of the organs (distal), and three images of the ducts closest to the urethra (proximal), totalling 27 distal and proximal counts for each treatment group.
The proliferative index of the epithelial and mesenchymal cell compartments was calculated for VPs cultured −/+T and −/+SHH after the addition of BrdU (FIG. 10D).

Series [4] deals with ventral prostate (VP). In words: Organ culture of P0 rat VPs: histology (Masson's trichrome) and p63/CK14 immunohistochemistry. The following applies: six days. It counts as cell-based. The procedure: as §1
Prostatic ducts grow initially as solid cords, which then canalise, resulting in ducts that contain lumens. […] Normal prostatic ducts in rats consist of luminal secretory cells with underlying basal cells, forming a single lumen.

Series [5] relates to UGS explants. To be noted: for prostatic buds: 7 days.
Experimental: As the prostate was not well developed in either mutant (FIG. 9B) or wildtype males at this stage, UGS explants from both Shh null mice and their littermates were grown in vitro to determine if prostatic budding could be induced (n=3).
The subject of series [6] is Ptc transcripts. In words: RNase protection assay, VPs grown in vitro. It counts as cell-based, rat. The following applies: six days −/+T; or five days T then one day cyproterone acetate. From the text: (§2) DNA templates for Shh and Ptc riboprobes were synthesised by RT-PCR from P0 UGT cDNA and subcloned into pBluescript KSII+ (Stratagene, USA). PCR primers were designed using GenBank-published cDNA sequences (Shh: GenBank Accession No. NM_017221; Primers: L—[…] (SEQ ID No 1), R—[…] (SEQ ID No 2); Ptc: GenBank Accession No. AF079162; Primers L—[…] (SEQ ID No 3), R—[…] (SEQ ID No 4)). DNA templates for Cyclophilin (Cphn) and 28S riboprobes were from Ambion, Inc., USA. ^32P-labelled anti-sense riboprobes were transcribed, and RNase protection assays performed as previously described in detail (Thomson et al., 1997). RNase protected products from Shh, Ptc, Cphn and 28S riboprobes were 269 nucleotides (nt), 322 nt, 103 nt and 155 nt respectively. Gels were imaged using a Storm phosphorimager (Molecular Dynamics, USA) and transcript abundance was determined from the intensities of bands, calculated using ImageQuant V.1.2 (Molecular Dynamics, USA).
(§3) RPAs were performed to analyse Shh and Ptc transcripts levels in VPs and URs grown in vitro. VPs were cultured for six days in the presence or absence of T; or for five days with T followed by a one-day treatment with the AR antagonist cyproterone acetate (FIG. 3B). […] Similarly, in short-term cultures of VPs (seven hours or three days), no changes in transcript levels were observed (data not shown).

For series [7], the system named is Shh transcripts. In words: RNase protection assay, VPs grown in vitro. To be noted: six days −/+T; or five days T then one day cyproterone acetate. It counts as cell-based, rat.
From the text: as §2, §3

For series [8], the system named is Ptc transcripts. In words: RNase protection assay, female URs cultured three days. It counts as cell-based, rat. The following applies: three days −/+T (10^−8 M).
From the text: as §2, §3

The test system of series [9] is Shh transcripts. The series is described as above. It counts as cell-based, rat. To be noted: three days −/+T (10^−8 M).
From the text: as §2, §3

Series [10] relates to Shh transcripts. The following applies: explants cultured for three days; cited from earlier work.
For series [11], the target named is SONIC HEDGEHOG (SHH) protein, endogenous in cultured P0 Wistar rat ventral prostate (rat) (UniProt Q63673). The experiment in a line: cell-based or functional assay.

Several values for one entry are separate records, joined by “and”; a condition that tells them apart may be missing. Equal entries are not always repeated. Where two headings read alike, the source gives them in different places.

SONIC HEDGEHOG (SHH) protein, endogenous in cultured P0 Wistar rat ventral prostate (rat), sequence (Q63673 25-198 limits assumed): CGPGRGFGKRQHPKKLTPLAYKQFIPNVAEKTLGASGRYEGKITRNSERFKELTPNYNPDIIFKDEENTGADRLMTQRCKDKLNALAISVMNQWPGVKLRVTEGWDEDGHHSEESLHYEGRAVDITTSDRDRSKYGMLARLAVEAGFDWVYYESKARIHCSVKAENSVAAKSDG

As to `CC1=C2C[C@H]3[C@@H](CC=C4C[C@@H](O)CC[C@@]43C)[C@@H]2CC[C@]12O[C@@H]1C[C@H](C)CN[C@H]1[C@H]2C` [Cy, cyclopamine], in series [1], the “effect on VP cultures” value was “little or no effect”, the “optimum concentration for growth inhibition” value is 1 µM and the “toxicity to VP organ cultures (organs dying prematurely)” value is reported as “toxic”. Further, in series [2] (+T +Cy), the “mean bud tips per unit perimeter” value was 69.84+/−1.13 bud tips per unit perimeter. In addition, in [2] (−T +Cy), the “mean bud tips per unit perimeter” value was 74.47+/−1.07 bud tips per unit perimeter. Besides, the “mitotic nuclei in distal epithelial tips” value in series [3] was 13.48%+/−0.93% and 16.28%+/−0.74%. Moreover, in [4] (+T +Cy), the CK14 expression entry is recorded as “very few CK14-positive cells in distal tips”, the “canalisation (lumens) of prostatic ducts” value is listed as “exhibited lumens in distal tips” and the p63 expression entry is reported as “confined to the basal cell layer of all distal tips”. The “appearance of epithelial tips” value in [4] (−T +Cy) is reported as “did not alter the appearance of epithelial tips”. Further, the toxicity to explants result in series [5] (5 μM Cy) is “toxic and caused premature organ death”. Further, the toxicity to explants entry in [5] (10 μM Cy) was “toxic and caused premature organ death”. Besides, in [5] (+T +5 μM Cy), the prostatic buds entry was “present”. In addition, the prostatic buds result in series [5] (+T +10 μM Cy) is listed as “present”.
As to `C[C@]12CC[C@H]3[C@@H](CCC4=CC(=O)CC[C@@]43C)[C@@H]1CC[C@@H]2O` [T, testosterone], the “% area (2D area relative to −T)” value in series [1] (+T alone (SHH experiments), 3 days) is 127.05+/−5.12%. Moreover, in [2] (+T alone (5E1 experiments)), the peripheral tip number is 74.32+/−0.69. The “mean bud tips per unit perimeter” value in series [2] (+T alone (Cy experiments)) is 71.80+/−0.83 bud tips per unit perimeter. Also, in series [2] (+T alone (SHH experiments)), the “mean bud tips per 1000 pixels perimeter” value is on record as 83.92+/−2.25 bud tips per 1000 pixels perimeter. Moreover, the “mitotic nuclei in distal epithelial tips” value in series [3] (+T alone (Cy experiments), day six) came to 23.24%+/−1.86%. Besides, in series [3] (+T alone (SHH experiments)), the “% proliferative nuclei, mesenchyme” value amounted to 17.81%+/−1.22% and the “% proliferative nuclei, epithelium” value was 32.54%+/−1.65%. For the same molecule, in series [3] (response to T), the “proliferation in proximal ducts” value is reported as “reduced”. In addition, the Ptc transcript abundance result in [6] is on record as “No significant difference”. Besides, the Shh transcript abundance entry in series [7] is given as “No significant difference”. In addition, in series [8], the “change in Ptc transcript levels” value is reported as “no significant change”. Also, the “upregulation of Shh transcripts” value in series [9] was “two-and-a-half-fold”. The prostatic buds entry in [5] (+T) is given as “present”.
Consider `CC(=O)O[C@]1(C(C)=O)CC[C@H]2[C@@H]3C=C(Cl)C4=CC(=O)[C@@H]5C[C@@H]5[C@]4(C)[C@H]3CC[C@@]21C` [cyproterone acetate], for which the Ptc transcript abundance result in series [6] is on record as “No significant difference”. For the same molecule, in series [7], the Shh transcript abundance entry is “No significant difference”.
As to `C[C@]12CCC(=O)C[C@@H]1CC[C@@H]1[C@@H]2CC[C@]2(C)[C@@H](O)CC[C@@H]12` [dihydrotestosterone], the “increase in Shh transcripts” value in [10] was “five-fold”.
For “SHH: recombinant SHH protein (Research Diagnostics, USA)”, in [1] (+T +SHH, 3 days), the “% area (2D area relative to −T)” value was 123.03+/−6.75%. Besides, the “effect on mesenchyme of cultured VPs” value in series [1] (recombinant SHH, 3 days, both −/+T) is “expansion of the mesenchyme around the periphery of VPs”. Also, the “mean bud tips per 1000 pixels perimeter” value in [2] (+T +SHH) is listed as 68.34+/−2.57 bud tips per 1000 pixels perimeter; in [2] (−T +SHH), 48.0+/−3.35 bud tips per 1000 pixels perimeter. Besides, the “% proliferative nuclei, mesenchyme” value in series [3] (+T+SHH) is on record as 20.47%+/−1.07%; in [3] (−T+SHH) it was 19.45%+/−1.12%. The entries for the “% proliferative nuclei, epithelium” value in [3] (+T+SHH) and in series [3] (−T +SHH) were 30.46%+/−1.72% and 18.62%+/−2.06%, respectively. In addition, the “reduction of epithelial cell proliferation” value is recorded as 6% in [3] (VPs grown +T, not statistically significant) and “a third” in [3] (VPs grown −T).
Turning to “anti-SHH antibody (clone 5E1, Developmental Studies Hybridoma Bank, University of Iowa)”, in [11], the decrease in growth of P0 rat ventral prostate in vitro (two-dimensional area, five days of culture, 100 ug/ml antibody) was determined as 20% and the decrease in testosterone-induced growth of rat ventral prostates in vitro turned out to be 50%.
